Measured values taken from patent EP0149140A2, “Novel compounds” (BEECHAM GROUP PLC, priority 1983, dated 1985).

Tested on: E coli B44 (09:K90:K99)
Experiment: Protection of Neonatal Mice from Lethal Enteropathogenic E coli Infection
Type: in vivo
Settings: 4 day old mice, % reduction in mortality vs placebo, 10 days; for inhibition in vivo at 0.4 mg/kg: 0.4 mg/kg (dose of hydrochloride salt) b.i.d. for four days commencing 16 hours after infection; for inhibition in vivo at 0.08 mg/kg: 0.08 mg/kg (dose of hydrochloride salt) b.i.d. for four days commencing 16 hours after infection; for inhibition in vivo at 2 mg/kg: 2 mg/kg (dose of hydrochloride salt) b.i.d. for four days commencing 16 hours after infection; for Protection %: Table 2, 10 mg/kg (dose of hydrochloride salt) b.i.d. for four days commencing 16 hours after infection
Protocol: 4 day old mice were dosed orally with 50µl of phosphate buffered saline containing 1 x 10^5 organisms/ml of E coli B44 (09:K90:K99) an enteropathogenic strain originally isolated from a scouring calf. The mice were then dosed b.i.d. with either placebo or drug as the hydrochloride salt for four days commencing 16 hours after infection. The animals were left with their mothers throughout the experiment and a daily record of deaths were made. The experiment was terminated 10 days after infection of the mice.
The mortality in the drug group was then compared with the mortality in the placebo group using the following formula:- [formula] where Mp = mortality in group receiving placebo Md = mortality in group receiving drug
Statistical analysis was performed using 2 x 2 contingency tables (single tailed 'p'). Results are given in Tables 1 and 2. 'Protection %' is the same as '% Reduction in mortality' above.

[1] = Mus musculus, intraduodenal, 240 h, Table 1

Compound	inhibition in vivo at 0.4 mg/kg [1]	inhibition in vivo at 0.08 mg/kg [1]	inhibition in vivo at 2 mg/kg [1]	other results
S=C(NCc1ccccc1)Nc1cc(Cl)c(N=C2NCCN2)c(Cl)c1	21%	–	–	–
CN=C(Nc1cc(Cl)c(N=C2NCCN2)c(Cl)c1)SC	26%	22%	13%	–
CSC(=Nc1cc(Cl)c(N=C2NCCN2)c(Cl)c1)N(C)C	–	13%	–	–
CSC(=NCc1ccc(F)cc1)Nc1cc(Cl)c(N=C2NCCN2)c(Cl)c1	–	29%	–	inhibition in vivo at 0.04 mg/kg (Mus musculus, intraduodenal, 240 h, Table 1, 0.04 mg/kg (dose of hydrochloride salt) b.i.d. for four days commencing 16 hours after infection): 40%
CNC(=S)Nc1cc(C)c(N=C2NCCN2)c(C)c1	43%	–	69%	–
Cc1cc(NC(=S)NCc2ccc(F)cc2)cc(C)c1N=C1NCCN1	–	–	11%	–
CNC(=S)Nc1cc(Cl)c(N=C2NCCN2)c(Cl)c1	6%	6%	–	–
S=C(Nc1cc(Cl)c(N=C2NCCN2)c(Cl)c1)NC1CCCCC1	–	6%	–	–
CNC(=S)Nc1ccc(C)c(N=C2NCCN2)c1	–	–	–	Protection %: 5%
CN=C(Nc1ccc(C)c(N=C2NCCN2)c1)SC	–	–	–	Protection %: 13%
